From patent publication US20040029891A1, “Use of PDE5 inhibitors in the treatment of polycystic ovary syndrome” (Pfizer Inc., priority 2002, published 2004)

Experiments:
ob/ob mice [1] = assay: Plasma glucose in ob/ob mice, 5 day dosing; type: in vivo, mouse; conditions: summary in words
Procedure: (§1) The selective pyrazolopyrimidinone PDEV inhibitor compounds to be tested were solubilized in 10% DMSO/0.1% pluronics and dosed via oral gavage using mouse oral feeding needles (20 gauge, Popper & Sons, Inc., New Hyde Park, N.Y.). A volume of 4 ml/kg weight was administered for each dose. Compounds were tested at doses ranging from 1-50 mg/kg. Alternatively, the test selective pyrazopyrimidinone PDEV inhibitor compound was administered in the drinking water and found to produce similar reductions in plasma glucose and triglycerides to the reductions observed for the same compound when administered by oral gavage. […]
(§2) Mice were allowed to acclimate to the Pfizer animal facilities for 1 week prior to the start of the study. On day one, retro-orbital blood samples were obtained and plasma glucose was determined as described hereinafter. […] Body weight was measured on days 1 and 5 of the study, and food consumption was assessed over the 5 day period.
(§3) On the morning of the last day of the study mice were dosed with test pyrazolopyrimidinone PDEV compound or vehicle at approximately 8:00 am. […] Plasma samples were stored at −80° C. until analyzed.
(§4) Plasma glucose and triglycerides were measured using the Alcyon Clinical Chemistry Analyzer (Abbott Laboratories, Abbott Park, Ill.) using kits supplied by Abbott. […]

ob/ob mice [2] = assay: Plasma triglycerides in ob/ob mice, 5 day dosing; type: in vivo, mouse; conditions: summary in words
Procedure: as §1, §2, §3, §4

cattle = assay: Uterine horn histology (endometrial epithelial thickness) in cattle; type: in vivo; conditions: intra-vaginally twice daily, 30 days, relative to control animals (FIG. 4)
Procedure: Oestrous was synchronised using two intramuscular injections of PGF2a (Lutalyse™) administered 11 days apart.
The pyrazolopyrimidinone PDE V inhibitor was administered intra-vaginally twice daily from day −3 of oestrus until day 6 of the following oestrus (30 days in total). Blood samples were collected daily, plasma was prepared as soon as possible and stored at −20° C. and then analysed for progesterone.
At the completion of the study (ie day 6 of the second oestrous period) the cattle were euthanised and the reproductive tract collected. A cross section of the left and right horns of each uterus was collected and stored in 10% Formalin and ten analysed histologically.

SMILES | plasma glucose levels (ob/ob mice [1]) | serum triglyceride levels (ob/ob mice [2]) | endometrial epithelial thickness (cattle)
CCCc1nn(C)c2c(=O)[nH]c(-c3cc(S(=O)(=O)N4CCN(C)CC4)ccc3OCC)nc12 [PDE5 C, 5-[2-ethoxy-5-(4-methyl-1-piperazinylsulphonyl)phenyl]-1-methyl-3-n-propyl-1,6-dihydro-7H-pyrazolo[4,3-d]pyrimidin-7-one] | reduce | reduce | 
CCCOc1ccc(S(=O)(=O)N2CCN(CC)CC2)cc1-c1nc2c(CC)n(Cc3ccccn3)nc2c(=O)[nH]1 [PDE5 A, 3-ethyl-5-[5-(4-ethylpiperazin-1-ylsulphonyl)-2-n-propoxyphenyl]-2-(pyridin-2-yl)methyl-2,6-dihydro-7H-pyrazolo[4,3-d]pyrimidin-7-one] |  |  | increases endometrial epithelial thickness
